Test results published in patent publication US20080026084A1, “Method and composition for management of weight and blood sugar” (PhytoMyco Research Corporation, priority 2006, published 2008).

Tested on: 3T3-L1 cells
Experiment: assays of this invention (lipolysis, inhibition of adipocyte differentiation, de-differentiation, leptin secretion)
Assay type: cell-based, mouse
Conditions: not given
Excerpt: Method i): Oil Red O staining which stains fat droplets in fat cells and thereby gives a directly related indication of the level of adipogenesis as a function of the amount of staining of fat droplets.
Method ii): GPDH or […] is a key enzyme involved in the pathway of triglyceride synthesis in the glycolytic pathway. Adipocytes express highlevels of this enzyme. Therefore, a reduction in GPDH levels is indicative of inhibition of adipogenesis (prevention of fat accumulation in cells).
Method iii): Assay to observe de-differentiation of adipocytes to preadipocytes can be used to detect compounds and mixtures of compounds that are capable of breaking down existing stores of body fat. This assay identifies compounds and mixtures of compounds than induce the […] of adipocytes to preadipocytes and is quantitatively assessed by developing a color response using Oil Red O staining or by measuring GPDH levels as in methods i) and ii), respectively. Such compounds and mixtures of compounds as extracts of plants can have a direct effect on reducing weight because they cause fat cells to become non-fat cells (preadipocytes).
Method iv) Leptin Secretion assay can be used to determine the presence of leptin which is a product of the Ob gene. It is a hormone secreted by mature adipocytes that plays a role in regulating body fat storage. High levels of leptin circulating in the blood indicate hormonally that energy stores are high, and therefore mitigate the need for further food intake. Compounds or mixtures of compounds of this invention that increase leptin secretion can be administered orally to an overweight or obese person to reduce appetite in that person, and therefore to reduce food intake by that person.
In this assay, pre-adipocyte cells are seeded in 96-well plates and are induced to convert to adipocytes over the course of a 10-15 day treatment with […] reagents. After cells have converted to adipocytes, the cells are starved, and then subsequently treated with or exposed to test compounds or mixtures of compounds or extracts of plants or fractionated extracts of plants. The adipocytes are treated with test compounds in the presence of a surrounding cell medium. Over the course of 1 to 3 hours after exposure to the test compounds or mixture of compounds, the amount of glycerol present in the cell medium is measured. Glycerol and fatty acids are hydrolysis products of triglycerides, and glycerol is released from cells after enzymatic hydrolysis or breakdown of lipids. Results are expressed as a percentage of the amount of glycerol present detected in a reference assay comprising an untreated control. Untreated controls are cells that are treated with vehicle only (such as 100% DMSO).
Inhibition of adipocyte differentiation is assayed by measuring the levels of the enzyme glycerol-3-phosphate dehydrogenase (GPDH). GPDH is involved in the pathway of triglyceride synthesis in the glycolytic pathway. Colorimetric assays can be used to screen for compounds and mixtures of compounds than inhibit the differentiation of preadipocytes to adipocytes. Oil Red O is a colorimetric assay that can be used to stain lipids in adipocytes.
In this assay pre-adipocyte cells require 10 to 15 days to differentiate into adipocytes. […] After cells have undergone the 10-15 days required to differentiate, cells are assessed for GPDH activity.
Results are expressed as a percentage of the untreated control average. […]

| Compound | activity in the assays of this invention |
| --- | --- |
| Cephalandrol | active |
| Cephalandrine A | active |
| CC(=O)OC(C)(C)/C=C/C(=O)[C@](C)(O)[C@H]1[C@H](O)C[C@@]2(C)[C@@H]3CC=C4[C@H](C[C@H](O)C(=O)C4(C)C)[C@]3(C)C(=O)C[C@]12C [cucurbitacin B] | active |
| Cephalandrine B | active |
| CC(C)(O)/C=C/C(=O)[C@](C)(O)[C@H]1[C@H](O)C[C@@]2(C)[C@@H]3CC=C4[C@@H](C[C@H](O)C(=O)C4(C)C)[C@]3(C)C(=O)C[C@]12C [cucurbitacin D] | active |

Tested on: not given
Experiment: not given
Conditions: in vivo; cited from earlier work

| Compound | decrease of the amount of fat absorbed from the diet |
| --- | --- |
| CCCCCCCCCCC[C@@H](C[C@@H]1OC(=O)[C@H]1CCCCCC)OC(=O)[C@H](CC(C)C)NC=O [Orlistat] | about 30% |
